Read-outs that look alike come from different tables or passages of the source.

The subject of this data set is DRG neurites. Particulars: for reduction in DRG area versus day 0: vincristine 0.01 μM; for Area (DRG neuritic halo) / Length (longest neurite): Vin 0.01 μM, AK295 50 μM, EGTA 2 mM, sulfate salt. Here is the method: On the day of DRG culture, the dishes are washed twice with PBS buffer (pH 7.4), filled with 550 μl medium and pre-incubated at 37 C for at least 2 hours. Fifteen-day old embryos (E15) are removed from pregnant Sprague-Dawley rats (Charles River), and spinal cords with cervical and thoracic DRGs attached are dissected into Leibovitz L-15 medium (GIBCO). Ganglia are separated from the spinal cord, stripped of their connective tissue sheaths and roots, and are then pooled and washed twice with PBS buffer (pH 7.4). DRGs are plated (4 per dish) in culture media and incubated at 37° C. in 5% carbon dioxide for 4 hours to allow DRGs to attach to the substrate. Medium is then added to bring the total volume to 1 ml. […] Calcium-free medium is prepared in the same manner, replacing MEM with S-MEM (GIBCO).
At the end of the treatment period (see below) DRGs are fixed for 30 minutes with 4% paraformaldehyde. Cultures are then rinsed with 0.1M TBS buffer, and treated sequentially with 3% H2O2, TBS-Triton, and 4% normal goat serum (NGS), each for 30 minutes at room temperature. DRGs are incubated at 4 C overnight in monoclonal antibody to MAP5 (1:500, Sigma). After washing in TBS-Triton, DRGs are incubated for 60 minutes in biotinylated secondary antibody, rinsed with TBS and reacted with avidin-biotin complex solution (ABC; Vector Labs) for one hour. Color is generated by incubation for 10 minutes in diaminobenzidine (DAB) solution, enhanced by addition of 0.025% cobalt chloride and 0.02% nickel ammonium sulfate. Stained tissue is rinsed, air dried and cover-slipped for microscopy with Crystal/Mount (Biomeda).
This method of allowing neuritic extension to proceed before addition of a neurotoxin tests the effect of the toxin on established neurites as opposed to the effect on primary neuritic outgrowth.
After day 5 of culture, the media is changed to that containing the experimental treatment. This date is defined as treatment day 0. Cultures are monitored and imaged daily using video microscopy. […] AK 295 (Z-leu-Abu-(CH2)3-4-morpholinyl, gift of Dr. James Powers, Georgia Institute of Technology), is dissolved in 100% DMSO and is then diluted to its final concentration with culture medium. The final concentration of DMSO is 0.05%. Phenylmethylsulfonyl fluoride (PMSF) is manufactured by and commercially available from Sigma.
After 6 days of treatment (11 days in culture) immunostained DRGs are quantitated for degree of axonal degeneration. Images of the DRGs and neurites are captured onto disk using a computerized video imaging system, and are analyzed using NIH Image version 1.61. DRG areas are calculated by tracing the outside circumference of the remaining culture halo. The length of the longest neurite of each DRG is measured from the center of the DRG to the distal end of the neurite, so that cultures without remaining neurites still have positive values. These quantitative data are subjected to ANOVA, with post-test correction for multiple comparisons.

The mark [1] stands for this setting: Day 3 of treatment, listed as Vin.
Setting [2] is: Day 4 of treatment, listed as Vin.
Setting [3] is: Day 6 of treatment, PMSF 50 μM, listed as Vin.

With Vincristine sulfate salt, for the setting “0.01 μM”, the “process of axonal degeneration (in words)” value is given as “relatively slow”. The “reduction in DRG area versus day 0” value runs as follows: (4 days exposure) 91.5%; (6 days exposure) 97.9%; (three days exposure) 76.6%. Further, the “Area (DRG neuritic halo)” value under setting [1] is reported as 6.78 ± 1.06 (17) mm^2; the “Area (DRG neuritic halo)” value (Day 3 of treatment) is on record as 6.78±1.06 mm^2; the “Area (DRG neuritic halo)” value under setting [2] was 2.45 ± 0.74 (13) mm^2; the “Area (DRG neuritic halo)” value (Day 4 of treatment) worked out at 2.45±0.74 mm^2; the “Area (DRG neuritic halo)” value under setting [3] is listed as 0.61 ± 0.21 (48) mm^2; the “Area (DRG neuritic halo)” value (Day 6 of treatment, PMSF 50 μM) turned out to be 0.16±0.61 mm^2. The “Length (longest neurite)” value was found to be 1.62 ± 0.19 mm under setting [1]; 1.62±0.19 mm (Day 3 of treatment); 0.91 ± 0.19 mm under setting [2]; 0.91±0.19 mm (Day 4 of treatment); 0.37 ± 0.06 mm under setting [3]; 0.37±0.06 mm (Day 6 of treatment, PMSF 50 μM). The “time within which axonal degeneration occurs” value (concentrations 0.05 μM, 5 day-old cultures) was in the range of 1 to 3 days. Moreover, the “reduction in length of the longest axons versus day 0” value runs as follows: (day 3, vincristine 0.01 μM) 57.6%; (day 4, vincristine 0.01 μM) 76.2%; (day 6, vincristine 0.01 μM) 90.3%. Moreover, the “time until fibers are completely replaced by axonal debris” value (vincristine exposure (FIG. 1: 0.01 μM)) lay in the range of 5 to 6 days.

Values taken from patent publication US20040127439A1, “Introduction of the wld gene for prevention of axonal degeneration in neurological diseases” (priority 2004, published 2004).
